Activity calls are given as the source filed them. The rule behind the calls is not given here.
What was measured:
Mus musculus [1] = assay: Anticonvulsant activity in ip dosed NMRI mouse assessed as protection against maximal electroshock seizure after 30 mins; format: functional; conditions: 0.5 h
Mus musculus [2] = assay: Anticonvulsant activity in ip dosed 6 Hz psychomotor seizure model of NMRI mouse assessed as protection against seizure after 30 minutes; format: functional; conditions: 0.5 h
Mus musculus [3] = assay: Analgesic activity in NMRI mouse assessed as reduction in formalin-induced neuropathic pain at 110 mg/kg, ip; format: functional; design: scale not given: the % may be the effect or the level left; conditions: route intraperitoneal
Mus musculus [4] = assay: Anticonvulsant activity in ip dosed albino CF1 mouse assessed as protection against subcutaneous pentylenetetrazol-induced seizure; format: functional, organism-based
Mus musculus [5] = assay: Anticonvulsant activity in ip dosed 6 Hz psychomotor seizure model of NMRI mouse assessed as minimal active dose after 30 mins; format: functional
Mus musculus [6] = assay: Analgesic activity in ip dosed NMRI mouse assessed as reduction in formalin-induced neuropathic pain after 30 mins; format: functional; conditions: 0.5 h
[7] = Neurotoxicity in ip dosed NMRI mouse assessed as median neurological impairing dose after 30 mins by rotarod test; format: toxicity, organism-based; conditions: in vivo
Mus musculus [8] = assay: Protective index, ratio of TD50 for ip dosed NMRI mouse to ED50 for ip dosed NMRI mouse by maximal electroshock test; format: functional
Mus musculus [9] = assay: Protective index, ratio of TD50 for ip dosed NMRI mouse to ED50 for ip dosed formalin-induced neuropathic pain model of NMRI mouse; format: functional
Mus musculus [10] = assay: Anticonvulsant activity in ip dosed albino CF1 mouse assessed as protection against maximal electroshock-induced seizure after 30 mins; format: functional; conditions: 0.5 h
Mus musculus [11] = assay: Anticonvulsant activity in ip dosed albino CF1 mouse assessed as protection against 6 Hz psychomotor seizure after 30 mins; format: functional; conditions: 0.5 h
Mus musculus [12] = assay: Analgesic activity in ip dosed albino CF1 mouse assessed as reduction of formalin-induced neuropathic pain after 30 mins; format: functional; conditions: 0.5 h
[13] = Neurotoxicity in ip dosed albino CF1 mouse assessed as median neurological impairing dose after 30 mins; format: toxicity, organism-based; conditions: in vivo
Mus musculus [14] = assay: Protective index, ratio of TD50 for ip dosed albino CF1 mouse to ED50 for ip dosed albino CF1 mouse by maximal electroshock test; format: functional
Rattus norvegicus [15] = assay: Anticonvulsant activity in po dosed albino Sprague-Dawley rat assessed as protection against maximal electroshock seizure; format: functional
[16] = Toxicity in po dosed albino Sprague-Dawley rat assessed as behavioural toxicity; format: organism-based; conditions: in vivo
Rattus norvegicus [17] = assay: Protective index, ratio of TD50 for po dosed albino Sprague-Dawley rat to ED50 for po dosed albino Sprague-Dawley rat by maximal electroshock test; format: functional
Mus musculus [18] = assay: Anticonvulsant activity in ip dosed albino CF1 mouse assessed as time of peak effect for protection against maximal electroshock-induced seizure; format: functional
Mus musculus [19] = assay: Anticonvulsant activity in ip dosed albino CF1 mouse assessed as time of peak effect for protection against 6 Hz psychomotor seizure; format: functional
Mus musculus [20] = assay: Analgesic activity in ip dosed albino CF1 mouse assessed as time of peak effect for reduction of formalin-induced neuropathic pain; format: functional
Mus musculus [21] = assay: Neurotoxicity in ip dosed albino CF1 mouse assessed as time of peak effect for median neurological impairing; format: toxicity, organism-based; conditions: in vivo
Rattus norvegicus [22] = assay: Anticonvulsant activity in po dosed albino Sprague-Dawley rat assessed as time of peak effect for protection against maximal electroshock seizure; format: functional
Mus musculus [23] = assay: Analgesic activity in NMRI mouse assessed as reduction in formalin-induced neuropathic pain at 37 mg/kg, ip; format: functional; design: scale not given: the % may be the effect or the level left; conditions: route intraperitoneal
Mus musculus [24] = assay: Analgesic activity in NMRI mouse assessed as reduction in formalin-induced neuropathic pain at 12 mg/kg, ip; format: functional, organism-based; design: dose 12 mg/kg
Mus musculus [25] = assay: Anticonvulsant activity in ip dosed maximal electroshock seizure model of NMRI mouse assessed as minimal active dose after 30 mins; format: functional

Structure (SMILES)	ED50 (Mus musculus [1])	ED50 (Mus musculus [2])	Activity (Mus musculus [4])	ED50 (Mus musculus [6])	TD50 at 0.5 h [7]	Ratio TD50/ED50 (Mus musculus [8])	ED50 (Mus musculus [10])	ED50 (Mus musculus [11])	ED50 (Mus musculus [12])	TD50 at 0.5 h [13]	Ratio TD50/ED50 (Mus musculus [14])	ED50 (Rattus norvegicus [15])	TD50 [16]	Ratio TD50/ED50 (Rattus norvegicus [17])	Time (Mus musculus [18])	Time (Mus musculus [19])	Time (Mus musculus [20])	Time (Mus musculus [21])	Time (Rattus norvegicus [22])	other results
CC(C)[C@@H](N)C(=O)NCc1ccc(OCc2cccc(F)c2)cc1	12 mg/kg	> 110 mg/kg	inactive	–	–	–	–	–	–	–	–	–	–	–	–	–	–	–	–	Activity (Mus musculus [3]): 80%
COC[C@@H](N)C(=O)NCc1ccc(-c2ccccc2)cc1.Cl	15 mg/kg	–	inactive	> 33 mg/kg	–	–	–	–	–	–	–	–	–	–	–	–	–	–	–	MAC (Mus musculus [5]): 59 mg/kg
COC[C@@H](N)C(=O)NCc1ccc(Br)cc1.Cl	31 mg/kg	> 180 mg/kg	inactive	70 mg/kg	115 mg/kg	3.7	–	–	–	–	–	–	–	–	–	–	–	–	–	Ratio TD50/ED50 (Mus musculus [9]): 1.6
CC(C)[C@@H](N)C(=O)NCc1ccc(F)cc1	–	–	inactive	–	–	–	32 mg/kg	63 mg/kg	32 mg/kg	97 mg/kg	3	21 mg/kg	> 500 mg/kg	>24	0.25 h	0.25 h	0.25 h	0.25 h	0.5 h	–
COC[C@@H](N)C(=O)NCc1ccc(COc2cccc(F)c2)cc1	8.9 mg/kg	58 mg/kg	inactive	–	46 mg/kg	5.4	10 mg/kg	< 30 mg/kg	–	30 mg/kg	–	12 mg/kg	> 500 mg/kg	>42	0.5 h	–	–	0.5 h	0.5 h	Activity (Mus musculus [23]): 94%; Activity (Mus musculus [24]): inactive
CC(C)[C@@H](N)C(=O)NCc1ccccc1	–	74 mg/kg	–	20 mg/kg	47 mg/kg	2.9	15 mg/kg	< 100 mg/kg	15 mg/kg	70 mg/kg	4.8	11 mg/kg	> 500 mg/kg	>45	0.25 h	0.25 h	0.25 h	0.25 h	0.25 h	MAC (Mus musculus [25]): 16 mg/kg

— ChEMBL document CHEMBL1828555, “Primary amino acid derivatives: substitution of the 4'-N'-benzylamide site in (R)-N'-benzyl 2-amino-3-methylbutanamide, (R)-N'-benzyl 2-amino-3,3-dimethylbutanamide, and (R)-N'-benzyl 2-amino-3-methoxypropionamide provides potent anticonvulsants with pain-attenuating properties” (J Med Chem, 2011)
